The test system of assay [1] is lambs with acute pulmonary hypertension. As to conditions: cited from earlier work; for pulmonary vasodilation / effect on mean arterial pressure / systemic arterial oxygenation / transpulmonary cGMP release: inhaled microparticles, awake lambs, U-46619 infusion; for pulmonary vasodilation: mean pulmonary arterial pressure 35 mm Hg.
Assay [2] has as its system Guinea pig tracheal smooth muscle (GPTSM). Kind of assay: Electrical field stimulated guinea pig tracheal smooth muscle in vitro (ex vivo) model of bronchodilation. As to conditions: Cavia porcellus; guinea pig tracheal strips, sub-maximal EFS; 95% CI 0.78-0.94; read-out: IC50, inhibition of EFS-induced tracheal smooth muscle contraction. The text has this:
Electrical Field Stimulated Guinea Pig Tracheal Smooth Muscle In Vitro (Ex Vivo) Model for the Assessment of Bronchodilation.
It is possible to assess the bronchodilating effects of sGC stimulators by using the system described below. This system allowed us to determine potency, efficacy and duration of action of several sGC stimulators, as well as to assess potential side effects such as blood pressure, or heart rate changes. […]
On each experimental day, a guinea pig was killed by exposure to a rising concentration of CO2 and the trachea removed. […] Tissues were washed with Kreb's buffer and stimulated using the previously determined sub-maximal voltage for 1 hour to establish a stable baseline contraction prior to assessment of compound activity.
A cumulative dose response curve (DRC) to each test substance was then performed and changes in smooth muscle contraction measured. The effect of each test substance in each experiment was expressed as a percentage inhibition of the baseline contraction, normalized to the relevant vehicle controls. […] The data from all three experiments was pooled, the DRC plotted, and the test substance potency and efficacy determined.

Consider four molecules from patent US20150342954A1, “2-BENZYL, 3-(PYRIMIDIN-2-YL) SUBSTITUTED PYRAZOLES USEFUL AS SGC STIMULATORS” (IRONWOOD PHARMACEUTICALS, INC., priority 2011, published 2015).

One may read the IC50 as the point on the concentration scale where inhibition reaches its midpoint.

For `Nc1nc(-c2nn(Cc3ccccc3F)c3ncccc23)nc(N)c1N1CCOCC1` [BAY 41-8543], in assay [1] (after inhaling the microparticles, lambs), the “magnitude and duration of pulmonary vasodilation induced by iNO” value is recorded as “augmented”. For the same molecule, in assay [1], the pulmonary vasodilation result is “dose dependent pulmonary vasodilation”, the “effect on mean arterial pressure” value was “without significant effect on mean arterial pressure”, the systemic arterial oxygenation entry is listed as “increased systemic arterial oxygenation” and the “transpulmonary cGMP release” value was “increased transpulmonary cGMP release”.
As for `CC(C)[N+]1(C)[C@@H]2CC[C@H]1C[C@@H](OC(=O)C(CO)c1ccccc1)C2` (some centres unmarked) [Ipratropium bromide], the IC50 in assay [2] was 0.86 nM.
In the case of `Nc1nc(-c2nn(Cc3ccccc3F)c3ncccc23)ncc1C1CC1` [BAY 41-2272], in assay [1], the pulmonary vasodilation result is on record as “dose dependent pulmonary vasodilation”, the “effect on mean arterial pressure” value is “without significant effect on mean arterial pressure” and the “transpulmonary cGMP release” value is given as “increased transpulmonary cGMP release”.
`O=C(O)CCCCN(CCc1ccccc1OCc1ccc(CCc2ccccc2)cc1)Cc1ccc(C(=O)O)cc1` [BAY 58-2667]: the “pulmonary vasodilation and transpulmonary cGMP release after treatment with ODQ” value in assay [1] (inhaled microparticles after intravenous ODQ, lambs) is “greatly enhanced”. In assay [1], the pulmonary vasodilation result is on record as “dose dependent pulmonary vasodilation”, the “effect on mean arterial pressure” value was “without significant effect on mean arterial pressure”, the systemic arterial oxygenation entry is “increased systemic arterial oxygenation” and the “transpulmonary cGMP release” value is recorded as “increased transpulmonary cGMP release”.
